Source: patent US10016422B2, “Nanocarrier drug delivery platform” (Oregon State University, priority 2015, dated 2018)
≈ marks a conversion by molar mass, not a printed value.

Assay: Intrinsic aqueous solubility and solubility increase in nanoparticles
Type: physicochemical
Settings: for solubility: aqueous medium; for increase of solubility by incorporation into the nanoparticles: versus intrinsic aqueous solubility

SMILES	solubility [µg/mL]	increase of solubility by incorporation into the nanoparticles [fold]
CC(C)(C)c1nc(-c2cccc(NS(=O)(=O)c3c(F)cccc3F)c2F)c(-c2ccnc(N)n2)s1 [DAB, dabrafenib]	1 (≈ 1.92 µM)	1000
CC(=O)O[C@@]12CO[C@@H]1C[C@H](O)[C@@]1(C)C(=O)[C@H](O)C3=C(C)[C@@H](OC(=O)[C@H](O)[C@@H](NC(=O)OC(C)(C)C)c4ccccc4)C[C@@](O)([C@@H](OC(=O)c4ccccc4)[C@H]21)C3(C)C [DTX, docetaxel]		455
CO[C@H]1C[C@@H]2CC[C@@H](C)[C@@](O)(O2)C(=O)C(=O)N2CCCC[C@H]2C(=O)O[C@H]([C@H](C)C[C@@H]2CC[C@@H](OCCO)[C@H](OC)C2)CC(=O)[C@H](C)/C=C(\C)[C@@H](O)[C@@H](OC)C(=O)[C@H](C)C[C@H](C)/C=C/C=C/C=C/1C [EVR, everolimus]	9.6 (≈ 10 µM)	201

More lines, now with the values ahead:

solubility [µg/mL]	increase of solubility by incorporation into the nanoparticles [fold]	SMILES
243 (≈ 791 µM)	8	O=c1cc(N2CCOCC2)oc2c(-c3ccccc3)cccc12 [LY, LY294002]
6 (≈ 9.75 µM)	221	CC(=O)Nc1cccc(-n2c(=O)n(C3CC3)c(=O)c3c(Nc4ccc(I)cc4F)n(C)c(=O)c(C)c32)c1 [TRA, trametinib]
